In patent publication US6933322B2, “Substituted naphthylenes for the treatment of non-insulin dependent diabetes mellitus” (Wyeth, priority 2002, dated 2005):

| melting point | SMILES |
| --- | --- |
| 174 to 175 °C | CC(C)(C)c1ccc(-c2nc(COc3cccc4cc(NS(=O)(=O)C(F)(F)F)ccc34)cs2)cc1 [Example 47, N-{5-[2-(4-tert-Butyl-phenyl)-thiazol-4-ylmethoxy]-naphthalen-2-yl}-C,C,C-trifluoro-methanesulfonamide] |
| 183 to 185 °C | O=S(=O)(Nc1ccc2c(OCc3csc(C4COc5ccccc5O4)n3)cccc2c1)C(F)(F)F (centres unmarked) [Example 50, N-{5-[2-(2,3-Dihydro-benzo[1,4]dioxin-2-yl)-thiazol-4-ylmethoxy]-naphthalen-2-yl}-C,C,C-trifluoro-methanesulfonamide] |
| 180 to 182 °C | O=S(=O)(Nc1ccc2c(OCc3cccc(-c4ccc(C(F)(F)F)cc4)n3)cccc2c1)C(F)(F)F [Example 43, C,C,C-Trifluoro-N-{5-[6-(4-trifluoromethyl-phenyl)-pyridin-2-ylmethoxy]-naphthalen-2-yl}-methanesulfonamide] |
| 119 to 120 °C | O=S(=O)(Nc1ccc2c(OCc3ccc(-c4ccccn4)cc3)cccc2c1)C(F)(F)F [Example 24, C,C,C-Trifluoro-N-[5-(4-pyridin-2-yl-benzyloxy)-naphthalen-2-yl]-methanesulfonamide] |
| 146 to 148 °C | COc1ccc(C2(COc3cccc4cc(NS(=O)(=O)C(F)(F)F)ccc34)N=CNO2)cc1 (centres unmarked) [Example 64, N-{5-[5-(4-methoxy-phenyl)-[1,2,4]-oxadiazol-5-ylmethoxy)-naphthalen-2-yl}-C,C,C-trifluoro-methanesulfonamide] |
| 60 to 62 °C | O=S(=O)(Nc1ccc2c(OCc3noc(C45CC6CC(CC(C6)C4)C5)n3)cccc2c1)C(F)(F)F [Example 60, N-[5-(5-Adamantan-1-yl-[1,2,4]oxadiazol-3-ylmethoxy)-naphthalen-2-yl]-C,C,C-trifluoro-methanesulfonamide] |
| 159 to 161 °C | NC(=O)Nc1ccc2c(OCc3ccccc3-c3ccccc3)cccc2c1 [Example 74, [5-(Biphenyl-2-ylmethoxy)-naphthalen-2-yl]-urea] |
| 155 to 156 °C | O=S(=O)(Nc1ccc2c(OCc3nc(-c4cccc(C(F)(F)F)c4)no3)cccc2c1)C(F)(F)F [Example 66, C,C,C-Trifluoro-N-{5-[3-(3-trifluoromethyl-phenyl)-[1,2,4]oxadiazol-5-ylmethoxy]-naphthalen-2-yl}-methanesulfonamide] |
| 127 to 130 °C | Cc1ccccc1-c1nc(COc2cccc3cc(NS(=O)(=O)C(F)(F)F)ccc23)co1 [Example 88, N-[5-[2-o-tolyl-oxazol-4-ylmethoxy)naphthalen-2-yl]C,C,C-trifluoromethanesulfonamide] |
| 170 to 173 °C | O=S(=O)(Nc1ccc2c(OCc3csc(-c4ccc(F)cc4)n3)cccc2c1)C(F)(F)F [Example 45, C,C,C-Trifluoro-N-{5-[2-(4-fluoro-phenyl)-thiazol-4-ylmethoxy]-naphthalen-2-yl}-methanesulfonamide] |
| 131 to 133 °C | O=S(=O)(Nc1ccc2c(OCc3ccc(-c4ccc(Cl)cc4)cc3)cccc2c1)C(F)(F)F [Example 22, N-[5-(4′-Chloro-biphenyl-4-ylmethoxy)-naphthalen-2-yl]-C,C,C-trifluoromethanesulfonamide] |
| 154 to 155 °C | CC(C)(C)c1ccc(C2(COc3cccc4cc(NS(=O)(=O)C(F)(F)F)ccc34)N=CNO2)cc1 (centres unmarked) [Example 59, N-{5-[5-(4-tert-Butyl-phenyl)-[1,2,4]-oxadiazol-5-ylmethoxy)-naphthalen-2-yl}-C,C,C-trifluoro-methanesulfonamide] |
| 178 to 180 °C | Cc1oc(-c2ccc(F)cc2)nc1COc1cccc2cc(NS(=O)(=O)C(F)(F)F)ccc12 [Example 82, N-{5-[5-methyl-2-(4-fluoro-phenyl)-oxazol-4-ylmethoxy]naphthalen-2-yl}C,C,C-trifluoromethanesulfonamide] |
| 195 to 197 °C | O=S(=O)(Nc1ccc2c(OCc3coc(-c4ccccc4)n3)cccc2c1)C(F)(F)F [Example 80, N-[5-(2-phenyl-oxazol-4-ylmethoxy)naphthalen-2-yl]C,C,C-trifluoromethanesulfonamide] |
| 131 to 132 °C | O=S(=O)(Nc1ccc2c(OCc3nc(-c4ccc(F)cc4)no3)cccc2c1)C(F)(F)F [Example 65, C,C,C-Trifluoro-N-{5-[3-(4-fluoro-phenyl)-[1,2,4]oxadiazol-5-yl-methoxy]-naphthalen-2-yl}-methanesulfonamide] |
| 134 to 136 °C | O=S(=O)(Nc1ccc2c(OCc3ccc(-c4ccc(F)cc4)cc3F)cccc2c1)C(F)(F)F [Example 7, N-[5-(3,4′-Difluoro-biphenyl-4-ylmethoxy)-naphthalen-2-yl]-C,C,C-trifluoro-methanesulfonamide] |
| 198 to 200 °C | O=S(=O)(Nc1ccc2c(OCc3coc(-c4ccc(Cl)cc4)n3)cccc2c1)C(F)(F)F [Example 84, N-{5-[2-(4-Chloro-phenyl)-oxazol-4-ylmethoxy]naphthalen-2-yl}C,C,C-trifluoromethanesulfonamide] |
| 125 to 127 °C | COC1(F)C=CC(c2cccc(COc3cccc4cc(NS(=O)(=O)C(F)(F)F)ccc34)c2)=CC1 (centres unmarked) [Example 12, N-[5-(4′-Fluoro-4′-methoxy-biphenyl-3-ylmethoxy)-naphthalen-2-yl]-C,C,C-trifluoro-methanesulfonamide] |

| melting point | SMILES |
| --- | --- |
| 139 to 140 °C | O=S(=O)(Nc1ccc2c(OCc3nc(-c4ccc(F)cc4)sc3Br)cccc2c1)C(F)(F)F [Example 56, N-{5-[5-Bromo-2-(4-fluoro-phenyl)-thiazol-4-ylmethoxy]-naphthalen-2-yl}-C,C,C-trifluoromethanesulfonamide] |
| 131 to 132 °C | O=S(=O)(Nc1ccc2c(OCc3csc(-c4ccc(OC(F)(F)F)cc4)n3)cccc2c1)C(F)(F)F [Example 55, C,C,C-Trifluoro-N-{5-[2-(4-trifluoromethoxy-phenyl)-thiazol-4-yl-methoxy]-naphthalen-2-yl}-methanesulfonamide] |
| 138 to 140 °C | COc1cccc(C2(COc3cccc4cc(NS(=O)(=O)C(F)(F)F)ccc34)N=CNO2)c1 (centres unmarked) [Example 62, N-{5-[5-(3-methoxy-phenyl)-[1,2,4]-oxadiazol-5-ylmethoxy)-naphthalen-2-yl}-C,C,C-trifluoro-methanesulfonamide] |
| 119 to 121 °C | O=S(=O)(Nc1ccc2c(OCc3ccccc3-c3ccccc3)cccc2c1)C(F)(F)F [Example 19, N-[5-(Biphenyl-2-ylmethoxy)-naphthalen-2-yl]-C,C,C-trifluoromethanesulfonamide] |
| 205 to 207 °C | O=S(=O)(Nc1ccc2c(OCc3coc(-c4ccc(Br)cc4)n3)cccc2c1)C(F)(F)F [Example 86, N-{5-[2-(4-Bromo-phenyl)-oxazol-4-ylmethoxy]naphthalen-2-yl}C,C,C-trifluoromethanesulfonamide] |
| 89 to 99 °C | O=S(=O)(Nc1ccc2c(OCc3csc(-c4ccccc4)n3)cccc2c1)C(F)(F)F [Example 51, C,C,C-Trifluoro-N-[5-(2-phenyl-thiazol-4-ylmethoxy)-naphthalen-2-yl]-methanesulfonamide] |
| 165 to 167 °C | CC(C)(C)c1ccc(-c2nc(COc3cccc4cc(NS(=O)(=O)C(F)(F)F)ccc34)co2)cc1 [Example 85, N-{5-[2-(4-tert-Butyl-phenyl)-oxazol-4-ylmethoxy]naphthalen-2-yl}C,C,C-trifluoromethanesulfonamide] |
| 124 to 125 °C | Cc1c(COc2cccc3cc(NS(=O)(=O)C(F)(F)F)ccc23)cccc1-c1ccccc1 [Example 23, C,C,C-Trifluoro-N-[5-(2-methyl-biphenyl-3-ylmethoxy)-naphthalen-2-yl]-methanesulfonamide] |
| 162 to 164 °C | CC(C)(C)c1ccc(-c2ccc(COc3cccc4cc(NS(=O)(=O)C(F)(F)F)ccc34)c(F)c2)cc1 [Example 6, N-[5-(4′-tert-Butyl-3-fluoro-biphenyl-4-ylmethoxy)-naphthalen-2-yl]-C,C,C-trifluoro-methanesulfonamide] |
| 184 to 185 °C | N#Cc1ccc(C2(COc3cccc4cc(NS(=O)(=O)C(F)(F)F)ccc34)N=CNO2)cc1 (centres unmarked) [Example 61, N-{5-[5-(4-cyano-phenyl)-[1,2,4]-oxadiazol-5-ylmethoxy)-naphthalen-2-yl}-C,C,C-trifluoro-methanesulfonamide] |
| 173 to 174 °C | O=S(=O)(Nc1ccc2c(OCc3cccc(-c4ccc(F)cc4)n3)cccc2c1)C(F)(F)F [Example 42, C,C,C-Trifluoro-N-{5-[6-(4-fluoro-phenyl)-pyridin-2-ylmethoxy]-naphthalen-2-yl}-methanesulfonamide] |
| 190 to 192 °C | O=S(=O)(Nc1ccc2c(OCc3nc4ccccc4s3)cccc2c1)C(F)(F)F [Example 78, N-[5-(Benzothiazol-2-ylmethoxy)-naphthalen-2-yl]-C,C,C-trifluoro-methanesulfonamide] |
| 192 to 194 °C | Cc1oc(-c2ccccc2)nc1COc1cccc2cc(NS(=O)(=O)C(F)(F)F)ccc12 [Example 79, N-[5-(5-methyl-2-phenyl-oxazol-4-ylmethoxy)naphthalen-2-yl]C,C,C-trifluoromethanesulfonamide] |
| 151 to 153 °C | O=S(=O)(Nc1ccc2c(OCc3csc(-c4ccc(Cl)cc4)n3)cccc2c1)C(F)(F)F [Example 44, N-{5-[2-(4-Chloro-phenyl)-thiazol-4-ylmethoxy]-naphthalen-2-yl}-C,C,C-trifluoro-methanesulfonamide] |
| 205 to 207 °C | O=S(=O)(Nc1ccc2c(OCc3coc(-c4ccc(C(F)(F)F)cc4)n3)cccc2c1)C(F)(F)F [Example 87, N-{5-[2-(4-trifluoromethyl-phenyl)-oxazol-4-ylmethoxy]naphthalen-2-yl}C,C,C-trifluoromethanesulfonamide] |
| 140 to 142 °C | O=S(=O)(Nc1ccc2c(OCc3ccc4ccccc4c3)cccc2c1)C(F)(F)F [Example 83, N-[5-(Naphthalen-2-ylmethoxy)-naphthalen-2-yl]-C,C,C-trifluoro-methanesulfonamide] |
| 200 °C (dec.) | COc1ccc(-c2ccc(Cl)cc2)cc1COc1cccc2cc(NC(N)=O)ccc12 [Example 76, [5-(4′-Chloro-4-methoxy-biphenyl-3-ylmethoxy)-naphthalen-2-yl]-urea] |
